Legend:
SK-LMS-1 = test: MTS cell viability assay; format: cell-based; conditions: Leiomyosarcoma
Method: (§1) Cell viability was determined by measuring the activity of dehydrogenase enzymes in metabolically active cells using a tetrazolium compound, MTS. The assay was performed as described in Promega Technical Bulletin No. 169 (CellTiter 96 Aqueous Non-Radioactive Cell Proliferation Assay). Two human cancer cell lines were assayed (see, Table 1). Cells were maintained at 37° C. and 5% CO2 in DMEM media (4.5 g/L glucose) supplemented with 10% heat-inactivated FBS, 10 mM L-glutamine, and 10 mM Hepes pH 7.5. Briefly, cells were seeded in 96-well plates as set forth in Table 1 and incubated for 16-24 hours. Candidate compounds were serially diluted in DMSO, further diluted in cell culture media, and then added to cells (final DMSO concentration of 0.33%). Cells were incubated in the presence of candidate compound for 72 hours. MTS stock solution (MTS 2 gm/L, PMS […] in PBS) was added to the cells (final concentration MTS […] and PMS 7.67 mg/L) and incubated for 4 hours. SDS was added to a final concentration of 1.4% and absorbance at 490 nm was measured within two hours using a plate reader. […] GI50 values were given in Table 2 for the compounds listed. The Compound Numbers in Table 2 correspond to the numbers listed parenthetically in the Example titles. Where multiple measurements were made by different technicians, both values are given.
(§2) Cell viability was determined for N-(3-amino-propyl)-3-chloro-N—[(R)-1-(7-chloro-4-oxo-3-phenylamino-3,4-dihydro-quinazolin-2-yl)-but-3-ynyl]-2-fluoro-benzamide (compound I of Table 2). The cell viability assay of Example 105 was used. GI50 was determined using a variety of cell lines. Cells were plated at 100-5000 cells per well. At least 2 replicates were performed. Where multiple measurements were made by different technicians, both values are given.

DU145 = test: MTS cell viability assay; format: cell-based; conditions: prostate
Method: as §1, §2

NCI-H1993 = test: MTS cell viability assay; format: cell-based; conditions: Lung adenocarcinoma
Method: as §1, §2

A-375 = test: MTS cell viability assay; format: cell-based; conditions: Homo sapiens, Malignant melanoma
Method: as §1, §2

A375 = test: MTS cell viability assay; format: cell-based; conditions: skin
Method: as §1, §2

CFPPAC-1 = test: MTS cell viability assay; format: cell-based; conditions: Pancreasductal adenocarcinoma, cystic fibrosis
Method: as §1, §2

NCI-H661 = test: MTS cell viability assay; format: cell-based; conditions: Homo sapiens, Large cell Lung Cancer
Method: as §1, §2

SW780 = test: MTS cell viability assay; format: cell-based; conditions: Homo sapiens, bladder
Method: as §1, §2

NCI-H358 = test: MTS cell viability assay; format: cell-based; conditions: Homo sapiens, Non-small cell lung cancer, brancioalveolar carcinoma
Method: as §1, §2

RT-112 = test: MTS cell viability assay; format: cell-based; conditions: Human urinary bladder cell carcinoma
Method: as §1, §2

LS174T = test: MTS cell viability assay; format: cell-based; conditions: Homo sapiens, Colorectal Carcinoma
Method: as §1, §2

SNU-1 = test: MTS cell viability assay; format: cell-based; conditions: Homo sapiens, SNU1, Stomach
Method: as §1, §2

786-O = test: MTS cell viability assay; format: cell-based; conditions: Homo sapiens, 786-0, kidney
Method: as §1, §2

MCF-7 = test: MTS cell viability assay; format: cell-based; conditions: breast
Method: as §1, §2

NCI-H520 = test: MTS cell viability assay; format: cell-based; conditions: Homo sapiens, Squamous cell lung carcinoma
Method: as §1, §2

LS411N = test: MTS cell viability assay; format: cell-based; conditions: Homo sapiens, LS-411N, colon
Method: as §1, §2

RKO = test: MTS cell viability assay; format: cell-based; conditions: Homo sapiens, Colon Carcinoma
Method: as §1, §2

HEP-G2 = test: MTS cell viability assay; format: cell-based; conditions: Homo sapiens, HepG2, Hepatocellular carcinoma
Method: as §1, §2

HT-1080 = test: MTS cell viability assay; format: cell-based; conditions: Homo sapiens, Fibrosarcoma
Method: as §1, §2

U937 = test: MTS cell viability assay; format: cell-based; conditions: Homo sapiens, U-937, Monocyte Histocytic Lymphoma
Method: as §1, §2

HPAF-II = test: MTS cell viability assay; format: cell-based; conditions: Homo sapiens, pancreas
Method: as §1, §2

CAKI-1 = test: MTS cell viability assay; format: cell-based; conditions: Homo sapiens, kidney
Method: as §1, §2

K562 = test: MTS cell viability assay; format: cell-based; conditions: CML
Method: as §1, §2

Kato III = test: MTS cell viability assay; format: cell-based; conditions: Homo sapiens, Gastric Carcinoma
Method: as §1, §2

MIA-PaCa2 = test: MTS cell viability assay; format: cell-based; conditions: Homo sapiens, MIA PaCa-2, Pancreas
Method: as §1, §2

PACA2 tumor xenografts = test: PACA2 tumor xenograft efficacy study (Example 106); format: in vivo, mice
Method: Six-week old female athymic nude mice (NCR nu/nu; Charles River Laboratory, Wilmington, Mass.) were acclimated to the animal housing facility for at least 1 week before the study. Efficacy studies were performed in athymic mice bearing PACA2 tumor xenografts to determine the effect of compound on tumor growth. Tumor cells (1×10^7 PACA2 cells/animal) were inoculated subcutaneously on day 0. Tumor dimensions were measured by a digital microcaliper, and tumor volumes were calculated as length×width^2/2. […] Results are expressed as mean tumor volume±SE. To assess differences in tumor size between groups, a Mann-Whitney non-parametric t test was performed and significance was assessed for p values <0.05. Tumor size was evaluated periodically during treatment at the indicated days post-inoculation. Results are represented as the mean of tumor volume in mm^3±SE of several tumors (n=10) in function of the treatment period. […] (See FIG. 1A).

## C#CC[C@H](c1nc2cc(Cl)ccc2c(=O)n1Nc1ccccc1)N(CCCN)C(=O)c1cccc(Cl)c1F [Compound 1, N-(3-Amino-propyl)-3-chloro-N—[(R)-1-(7-chloro-4-oxo-3-phenylamino-3,4-dihydro-quinazolin-2-yl)-but-3-ynyl]-2-fluoro-benzamide]
SK-LMS-1
  GI50: 2210 nM
DU145; DU145, listed as I
  GI50: 304 nM
DU145; Homo sapiens, DU-145, DU145
  GI50: 303 nM
NCI-H1993; Homo sapiens, NCI-H1993, NCI-H1993
  GI50: 2420 nM
NCI-H1993; NCI-H1993, listed as I
  GI50: 1660 nM
A-375
  GI50: 766 nM
A375; A375, listed as I
  GI50: 752 nM
A375; Homo sapiens, A-375, A375
  GI50: 405 nM
CFPPAC-1
  GI50: 2080 nM
NCI-H661
  GI50: 109 nM
SW780
  GI50: 220 nM
NCI-H358
  GI50: 190 nM
RT-112
  GI50: 53 nM
LS174T
  GI50: 796 nM
SNU-1
  GI50: 552 nM
786-O
  GI50: 1740 nM
MCF-7; Homo sapiens, MCF7, MCF-7
  GI50: 5080 nM
MCF-7; MCF-7, listed as I
  GI50: 4830 nM
NCI-H520
  GI50: 139 nM
LS411N
  GI50: 237 nM
RKO
  GI50: 110 nM
HEP-G2
  GI50: 3840 nM
HT-1080
  GI50: 149 nM
U937
  GI50: 155 nM
HPAF-II
  GI50: 2060 nM
CAKI-1
  GI50: 2170 nM
K562; Homo sapiens, K562, K562
  GI50: 133 nM
K562; K562, listed as I
  GI50: 184 nM
Kato III
  GI50: 202 nM
MIA-PaCa2
  GI50: 259 nM
PACA2 tumor xenografts; 6.25 or 12.5 mg/kg intraperitoneally 3x weekly for 4 weeks, tumors ~100 mm^3 at start, FIG. 1A
  tumor growth compared to the vehicle control group: Significant reductions in tumor growth
PACA2 tumor xenografts; 6.25 or 12.5 mg/kg intraperitoneally 3x weekly, PACA2 xenograft mice
  tolerability of doses: well-tolerated

Source: patent US20110217300A1, “Quinazolinone Compounds and Methods of Use Thereof” (priority 2007, published 2011)
